# Experimental data: patent publication US7897765B2, “Therapeutic compounds and uses thereof” (Elixir Pharmaceuticals, Inc., priority 2003, dated 2011)
# Target: GHS-R (Homo sapiens, UniProt Q92847)
# Test: cell based assay of GHS-R antagonist/agonist activity
# Details: GHS-R antagonist Ki and/or agonist EC50 class
# Experimental: Cell-Based Activity Assays. For example, the ability of the compound to modulate accumulation of a second messenger signaling component downstream of GHS-R can be evaluated. For example, inositol phosphates (IP), as a result of Gq signaling in a mammalian cell, e.g., a Cos-7 cells. Other tissue culture cells, Xenopus oocytes, and primary cells can also be used.
# Phosphatidylinositol turnover assay. One day after transfection COS-7 cells are incubated for 24 hours with 5 μCi of [^3H]-myo-inositol in 1 ml medium supplemented with 10% fetal calf serum, 2 mM glutamine and 0.01 mg/ml gentamicin per well. Cells are then washed twice in buffer, 20 mM HEPES, pH 7.4, supplemented with 140 mM NaCl, 5 mM KCl, 1 mM MgSO4, 1 mM CaCl2, mM glucose, 0.05% (w/v) bovine serum; and incubated in 0.5 ml buffer supplemented with 10 mM LiCl at 37° C. for 30 min. For some assays, it is also useful to incubate the cells with adenosine deaminase ADA (200 U/mg, Boehringer Mannheim, Germany) for 30 min in a concentration of 1 U/ml.
# After incubation with the compound of interest for 45 min at 37° C., cells are extracted with 10% ice-cold perchloric acid and placed on ice for 30 min. The resulting supernatants are neutralized with KOH in HEPES buffer, and [^3H]-inositol phosphate is purified on Bio-Rad AG 1-X8 anion exchange resin as described. Assays can be run in duplicate, triplicate, etc.
# Other second messenger assays. Another second messenger that can be evaluated is Ca^2+. Ca^2+ mobilization can be evaluated using a calcium sensitive detector, such as aequorin protein or a dye, e.g., FURA-2. In an exemplary assay, calcium mobilization is evaluated in a recombinant cell that expresses GHS-R and aequorin.
# Gene expression assay. HEK293 cells (30 000 cells/well) seeded in 96-well plates are transiently transfected with a mixture of pFA2-CREB and pFR-Luc reporter plasmid (PathDetect™ CREB trans-Reporting System, Stratagene) and nucleic acid encoding GHS. One day after transfection, cells are treated with the compound of interest in an assay volume of 100 μl medium for 5 hrs. After treatment, cells are cultured in low serum (2.5%). After the incubation period, the assay is ended by washing the cells twice with PBS and adding 100 μl luciferase assay reagent (LucLite™, Packard Bioscience). Luminescence is measured (e.g., as relative light units (RLU)) using in a luminometer such as the TopCounter™ (Packard Bioscience) for 5 sec.
# IC50 and EC50 values can be determined by nonlinear regression, e.g., using the Prism 3.0 software (GraphPad Software, San Diego).
# Sequence of GHS-R (Q92847 whole entry, species assumed): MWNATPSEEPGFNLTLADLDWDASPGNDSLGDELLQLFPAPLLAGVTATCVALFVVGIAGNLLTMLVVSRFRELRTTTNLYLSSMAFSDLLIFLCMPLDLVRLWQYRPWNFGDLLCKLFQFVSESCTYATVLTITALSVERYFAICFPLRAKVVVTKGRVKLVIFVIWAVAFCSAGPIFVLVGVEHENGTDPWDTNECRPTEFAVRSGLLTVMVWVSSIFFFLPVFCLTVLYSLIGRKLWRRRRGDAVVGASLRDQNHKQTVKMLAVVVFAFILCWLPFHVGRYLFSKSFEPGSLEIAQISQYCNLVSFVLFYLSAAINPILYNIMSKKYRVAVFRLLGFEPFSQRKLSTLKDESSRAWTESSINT
row,Compound,Activity
1,CCN1CCC=C(C(=O)N[C@H](COCc2ccccc2)C(=O)N2CCC3(CC2)CN(S(C)(=O)=O)c2ccccc23)C1.Cl [Compound 2],"D (D refers to a compound having antagonist activity with Ki, <100 nM and agonist activity with EC50<100 nM in a cell-based assay)"
2,CN1CCC(C(=O)N[C@H](COCc2ccccc2)C(=O)N2CCC3(C=Cc4ccccc43)CC2)CC1 [Compound 3],A (A refers to a compound having antagonist activity with Ki<100 nM in a cell based assay)
3,CS(=O)(=O)N1CC2(CCN(C(=O)[C@@H](COCc3ccccc3)NC(=O)C3CCCNC3)CC2)c2ccccc21 (stereo partly drawn) [Compound 4],"D (D refers to a compound having antagonist activity with Ki, <100 nM and agonist activity with EC50<100 nM in a cell-based assay)"
4,CN(C)C[C@H]1CCC[C@@H](CNC(=O)[C@@H](Cc2c[nH]c3ccccc23)NC(=O)N2CCC3(C=Cc4ccccc43)CC2)C1 [Compound 5],A (A refers to a compound having antagonist activity with Ki<100 nM in a cell based assay)
5,CN(C)Cc1cccc(C(=O)N[C@H](COCc2ccccc2)C(=O)N2CCC3(CC2)CN(S(C)(=O)=O)c2ccccc23)c1 [Compound 6],A (A refers to a compound having antagonist activity with Ki<100 nM in a cell based assay)
6,CN1CCC=C(C(=O)N[C@H](COCc2ccccc2)C(=O)N2CCC3(CC2)CN(S(C)(=O)=O)c2ccccc23)C1 [Compound 7],"D (D refers to a compound having antagonist activity with Ki, <100 nM and agonist activity with EC50<100 nM in a cell-based assay)"
7,CCN(CC)CCS(=O)(=O)N[C@H](COCc1ccccc1)C(=O)N1CCC2(CC1)CN(S(C)(=O)=O)c1ccccc12 [Compound 8],"D (D refers to a compound having antagonist activity with Ki, <100 nM and agonist activity with EC50<100 nM in a cell-based assay)"
8,CC(C)(C)OC(=O)N[C@H](COCc1ccccc1)C(=O)N1CCC2(CC1)CN(S(C)(=O)=O)c1ccccc12 [Compound 9],A (A refers to a compound having antagonist activity with Ki<100 nM in a cell based assay)
9,CN(C)C[C@H]1CCC[C@@H](C(=O)N[C@H](COCc2ccccc2)C(=O)N2CCC3(CC2)CN(S(C)(=O)=O)c2ccccc23)C1 [Compound 10],"D (D refers to a compound having antagonist activity with Ki, <100 nM and agonist activity with EC50<100 nM in a cell-based assay)"
10,CN1CC=C[C@H]1C(=O)N[C@H](COCc1ccccc1)C(=O)N1CCC2(CC1)CN(S(C)(=O)=O)c1ccccc12 [Compound 11],A (A refers to a compound having antagonist activity with Ki<100 nM in a cell based assay)
11,CC(C)N1CCC=C(C(=O)N[C@H](COCc2ccccc2)C(=O)N2CCC3(CC2)CN(S(C)(=O)=O)c2ccccc23)C1 [Compound 12],A (A refers to a compound having antagonist activity with Ki<100 nM in a cell based assay)
12,CN1CCCC(C(=O)N[C@H](COCc2ccccc2)C(=O)N2CCC3(CC2)CN(S(C)(=O)=O)c2ccccc23)C1 (stereo partly drawn) [Compound 13],A (A refers to a compound having antagonist activity with Ki<100 nM in a cell based assay)
13,C[C@H](C(=O)N[C@H](COCc1ccccc1)C(=O)N1CCC2(CC1)CN(S(C)(=O)=O)c1ccccc12)N(C)C [Compound 14],A (A refers to a compound having antagonist activity with Ki<100 nM in a cell based assay)
14,CCN(C)CCC(=O)N[C@H](COCc1ccccc1)C(=O)N1CCC2(CC1)CN(S(C)(=O)=O)c1ccccc12 [Compound 15],C (C refers to a compound having antagonist activity of Ki>100 nM and <1500 nM in a cell based assay)
15,CS(=O)(=O)N1CC2(CCN(C(=O)[C@@H](COCc3ccccc3)NC(=O)C3=CCNCC3)CC2)c2ccccc21 [Compound 16],C (C refers to a compound having antagonist activity of Ki>100 nM and <1500 nM in a cell based assay)
16,CC(C)(C)NC(=O)N[C@H](COCc1ccccc1)C(=O)N1CCC2(CC1)CN(S(C)(=O)=O)c1ccccc12 [Compound 17],C (C refers to a compound having antagonist activity of Ki>100 nM and <1500 nM in a cell based assay)
17,CS(=O)(=O)N1CC2(CCN(C(=O)[C@@H](COCc3ccccc3)NC(=O)[C@@H]3C=CCN3)CC2)c2ccccc21 [Compound 18],C (C refers to a compound having antagonist activity of Ki>100 nM and <1500 nM in a cell based assay)

row,Compound,Activity
1,CC(C)N1CCC(C(=O)N[C@H](COCc2ccccc2)C(=O)N2CCC3(CC2)CN(S(C)(=O)=O)c2ccccc23)CC1 [Compound 19],C (C refers to a compound having antagonist activity of Ki>100 nM and <1500 nM in a cell based assay)
2,CN(C)CC(=O)N[C@H](COCc1ccccc1)C(=O)N1CCC2(CC1)CN(S(C)(=O)=O)c1ccccc12 [Compound 20],C (C refers to a compound having antagonist activity of Ki>100 nM and <1500 nM in a cell based assay)
3,CC(C)N(C)CCS(=O)(=O)N[C@H](COCc1ccccc1)C(=O)N1CCC2(CC1)CN(S(C)(=O)=O)c1ccccc12 [Compound 21],C (C refers to a compound having antagonist activity of Ki>100 nM and <1500 nM in a cell based assay)
4,CN1CCC(CN(C)[C@H](COCc2ccccc2)C(=O)N2CCC3(CC2)CN(S(C)(=O)=O)c2ccccc23)CC1.Cl.Cl [Compound 22],C (C refers to a compound having antagonist activity of Ki>100 nM and <1500 nM in a cell based assay)
5,CS(=O)(=O)N1CC2(CCN(C(=O)[C@@H](COCc3ccccc3)NC(=O)C[C@@H]3CCCN3)CC2)c2ccccc21 [Compound 23],C (C refers to a compound having antagonist activity of Ki>100 nM and <1500 nM in a cell based assay)
6,CN1CCC[C@H]1C(=O)N[C@H](COCc1ccccc1)C(=O)N1CCC2(CC1)CN(S(C)(=O)=O)c1ccccc12 [Compound 24],C (C refers to a compound having antagonist activity of Ki>100 nM and <1500 nM in a cell based assay)
7,CN(C)CC(=O)N[C@H](COCc1ccccc1)C(=O)N1CCC2(CC1)CN(S(=O)(=O)Cc1ccccc1)c1ccccc12 [Compound 26],C (C refers to a compound having antagonist activity of Ki>100 nM and <1500 nM in a cell based assay)
8,CCN1CCC(C(=O)N[C@H](COCc2ccccc2)C(=O)N2CCC3(CC2)CN(S(C)(=O)=O)c2ccccc23)CC1 [Compound 27],C (C refers to a compound having antagonist activity of Ki>100 nM and <1500 nM in a cell based assay)
9,CS(=O)(=O)N1CC2(CCN(C(=O)[C@@H](COCc3ccccc3)NS(=O)(=O)CCN3CCCC3)CC2)c2ccccc21.Cl [Compound 28],C (C refers to a compound having antagonist activity of Ki>100 nM and <1500 nM in a cell based assay)
10,CN(C)CC(=O)N[C@H](COCc1ccccc1)C(=O)N1CCC2(C=Cc3ccccc32)CC1 [Compound 29],C (C refers to a compound having antagonist activity of Ki>100 nM and <1500 nM in a cell based assay)
11,CC(C)(C)OC(=O)N[C@H](COCc1ccccc1)C(=O)N1CCC2(C=Cc3ccccc32)CC1 [Compound 30],C (C refers to a compound having antagonist activity of Ki>100 nM and <1500 nM in a cell based assay)
12,COCC(=O)N[C@H](COCc1ccccc1)C(=O)N1CCC2(CC1)CN(S(C)(=O)=O)c1ccccc12 [Compound 31],C (C refers to a compound having antagonist activity of Ki>100 nM and <1500 nM in a cell based assay)
13,CN1CCC[C@@H]1C(=O)N[C@H](COCc1ccccc1)C(=O)N1CCC2(CC1)CN(S(C)(=O)=O)c1ccccc12 [Compound 32],C (C refers to a compound having antagonist activity of Ki>100 nM and <1500 nM in a cell based assay)
14,COCCN1CCC(C(=O)N[C@H](COCc2ccccc2)C(=O)N2CCC3(CC2)CN(S(C)(=O)=O)c2ccccc23)CC1 [Compound 33],C (C refers to a compound having antagonist activity of Ki>100 nM and <1500 nM in a cell based assay)
15,CC(=O)OCC(=O)N[C@H](COCc1ccccc1)C(=O)N1CCC2(CC1)CN(S(C)(=O)=O)c1ccccc12 [Compound 34],C (C refers to a compound having antagonist activity of Ki>100 nM and <1500 nM in a cell based assay)
16,CCN(C)CCS(=O)(=O)N[C@H](COCc1ccccc1)C(=O)N1CCC2(CC1)CN(S(C)(=O)=O)c1ccccc12 [Compound 35],C (C refers to a compound having antagonist activity of Ki>100 nM and <1500 nM in a cell based assay)
